# Measured values reported in the supplement of paper PMC10307832.
# How the values were obtained:
# Assay in all cases: relative viability (nuclei count vs DMSO), 5 days (fraction); higher = more cells survive
# [1] = compound: CC(C)=CC[C@@H](O)C1=CC(=O)c2c(O)ccc(O)c2C1=O [Shikonin] + CC1(C)CCC(c2ccc(Cl)cc2)=C(CN2CCN(c3ccc(C(=O)NS(=O)(=O)c4ccc(N[C@H](CCN5CCOCC5)CSc5ccccc5)c(S(=O)(=O)C(F)(F)F)c4)cc3)CC2)C1 [Navitoclax] (partner 0.5 µM)
# Procedure, shortened: (§1)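 Relative viability divides the nuclei count in treated wells by that in vehicle wells. Lung cancer cell lines were seeded in 1536-well plates, dosed by pin tool the next day, and fixed and stained after 5 days in one step with final 0.05% Triton X-100, 1% formaldehyde and 1 ug/ml Hoechst. Dosing was a single drug or a fixed anchor-drug dose plus five library-drug doses (not always all listed) in √10 steps, and values are medians of duplicate plates imaged at 4×.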
# [2] = compound: CC(C)=CC[C@@H](O)C1=CC(=O)c2c(O)ccc(O)c2C1=O [Shikonin] + CC(=O)c1c(C)c2cnc(Nc3ccc(N4CCNCC4)cn3)nc2n(C2CCCC2)c1=O [Palbociclib] (partner 0.5 µM)
# Procedure, shortened: as §1
# [3] = compound: CC(C)=CC[C@@H](O)C1=CC(=O)c2c(O)ccc(O)c2C1=O [Shikonin] + CC(=O)Nc1cccc(-n2c(=O)n(C3CC3)c(=O)c3c(Nc4ccc(I)cc4F)n(C)c(=O)c(C)c32)c1 [Trametinib] (partner 0.02 µM)
# Procedure, shortened: as §1
# [4] = compound: CC(C)=CC[C@@H](O)C1=CC(=O)c2c(O)ccc(O)c2C1=O [Shikonin] + Cc1nc(Nc2ncc(C(=O)Nc3c(C)cccc3Cl)s2)cc(N2CCN(CCO)CC2)n1 [Dasatinib] (partner 0.075 µM)
# Procedure, shortened: as §1
# [5] = compound: CC(C)=CC[C@@H](O)C1=CC(=O)c2c(O)ccc(O)c2C1=O [Shikonin] + C[C@]1(O)C[C@@H](c2nc(-c3ccc4ccc(-c5ccccc5)nc4c3)c3c(N)nccn32)C1 [Linsitinib] (partner 1 µM)
# Procedure, shortened: as §1
Cell Line,relative viability ([1]; first compound 0.01 µM),relative viability ([1]; first compound 0.1 µM),relative viability ([1]; first compound 0.3162 µM),relative viability ([1]; first compound 1 µM),relative viability ([2]; first compound 0.01 µM),relative viability ([2]; first compound 0.1 µM),relative viability ([2]; first compound 0.3162 µM),relative viability ([2]; first compound 1 µM),relative viability ([3]; first compound 0.01 µM),relative viability ([3]; first compound 0.1 µM),relative viability ([3]; first compound 0.3162 µM),relative viability ([3]; first compound 1 µM),relative viability ([4]; first compound 0.01 µM),relative viability ([4]; first compound 0.1 µM),relative viability ([4]; first compound 0.3162 µM),relative viability ([4]; first compound 1 µM),relative viability ([5]; first compound 0.01 µM),relative viability ([5]; first compound 0.1 µM),relative viability ([5]; first compound 0.3162 µM),relative viability ([5]; first compound 1 µM)
NCI-H2347,0.775,0.73,0.781,0.798,0.432,0.424,0.414,0.397,0.272,0.273,0.279,0.249,0.268,0.351,0.296,0.2,0.976,0.987,1.07,0.977
NCI-H2405,0.962,0.922,1.16,0.837,0.527,0.569,0.558,0.509,0.622,0.725,0.653,0.573,0.206,0.235,0.256,0.256,0.903,0.982,1.01,0.914
NCI-H3122,1.03,1.09,1.05,1.09,0.228,0.215,0.178,0.176,0.183,0.292,0.211,0.266,0.882,0.761,0.969,0.861,1.03,1.07,1.09,1.03
PC-3 [JPC-3],0.758,0.848,0.884,0.786,0.59,0.589,0.538,0.552,0.664,0.688,0.669,0.616,1.11,0.968,1.1,0.958,0.923,1.07,0.951,1.03
PC-14,1.05,1.1,1.23,1.02,0.397,0.535,0.524,0.509,0.936,0.9,0.893,0.769,0.224,0.258,0.263,0.24,0.978,0.997,1.12,0.983
RERF-LC-KJ,0.835,0.996,0.758,1.11,1.09,1.13,1.1,1.08,0.97,0.728,0.991,0.743,0.991,0.975,0.834,0.661,0.985,0.896,0.867,0.953
SK-LU-1,0.966,0.972,1.08,0.589,0.379,0.404,0.437,0.373,0.46,0.485,0.513,0.449,0.164,0.191,0.182,0.186,1.26,1.27,0.999,1.01
SK-MES-1,1.25,1.19,1.29,1.29,0.317,0.3,0.295,0.288,0.595,0.57,0.575,0.71,0.26,0.453,0.323,0.375,1.18,1.06,1.04,1.08
SW 1573,1.2,1.13,1.01,0.869,0.513,0.344,0.323,0.093,0.615,0.502,0.502,0.112,0.591,0.546,0.444,0.144,0.968,0.772,0.887,0.626
UMC-11,0.282,0.324,0.31,0.318,0.297,0.351,0.335,0.338,0.573,0.802,0.656,0.793,0.476,0.49,0.459,0.503,1.02,1.19,1.1,1.13
